Reference: patent publication US11446319B2, “Composition containing flavonoid-cyclodextrin clathrate compound” (TAIYO KAGAKU CO., LTD., priority 2018, dated 2022)

System: human dermal fibroblasts
Format: cell-based
Settings: 24 h
Protocol: Specifically, human dermal fibroblasts (manufactured by PromoCell) were subcultured in a 24-well plate using a medium for cells in a proportion of 3×10^4 cells/well. […] After 24 hours, the viability of the cells was analyzed.
The viability of the cells was analyzed as follows. The cells were incubated at 37° C. and 5% CO2 for 1 hour in the presence of Neutral Red (pigment) (The live cells incorporating Neutral Red, thereby making the cells distinguishable from dead cells or damaged cells, and quantifiable). Next, 50% ethanol and a solution of 0.05 M NaH2PO4 were added to the cells to thereby extract out the pigment from the cells. Thereafter, the absorbance of the cells was measured with a spectrophotometer at 540 nm, and compared to that of the cells unexposed to the light, and shown as viability (%)=(analytical value at 540 nm of the photo-irradiated cells×100/analytical value at 540 nm of the cells not irradiated with light) in Table 26.
The evaluation was made in the same manner as in Example 231 except that the composition used during the incubation for 24 hours was changed to have the components as listed in Tables 26 to 29.

C[C@H](O)[C@H](O)[C@@H](O)[C@@H](O)C=O [rhamnose]
viability: about 5%
